≈ marks a conversion by molar mass, not a printed value.
Assays:
Gamma-secretase = experiment: Inhibition of human gamma-secretase in HEK-APPswe cells assessed as amyloid beta42 production by electrochemiluminescence assay; format: cell-based
[1] = Inhibition of gamma-secretase in mouse primary cortical neurons cells assessed as amyloid beta42 production after 5 days by ELISA; format: cell-based, Cerebral cortex neuron; details: cerebral cortex neuron
[2] = target: Voltage-gated inwardly rectifying potassium channel KCNH2 (Homo sapiens, UniProt Q12809); experiment: Inhibition of human ERG
[3] = Solubility of the compound; format: physicochemical
Liver microsome = experiment: Intrinsic clearance in human liver microsomes measured pre ug of protein; format: ADME
[4] = Permeability across apical to basolateral side in human Caco2 cells; format: ADME, cell-based; details: Caco-2, read-out: permeability
[5] = Permeability across basolateral to apical side in human Caco2 cells; format: ADME, cell-based; details: Caco-2, read-out: permeability
[6] = Ratio of drug level in brain to plasma in C57BL/6 mouse; format: ADME, organism-based; details: brain and plasma, read-out: BPR
Mus musculus [7] = experiment: Dose normalized AUC in C57BL/6 mouse at 3 umol/kg, iv; format: ADME, organism-based; details: in vivo
[8] = Volume of distribution at steady state in C57BL/6 mouse at 3 umol/kg, iv; format: ADME, organism-based; details: in vivo, read-out: Vdss
[9] = Half life in C57BL/6 mouse at 3 umol/kg, iv; format: ADME, organism-based; details: in vivo
[10] = Clearance in C57BL/6 mouse at 3 umol/kg, iv; format: ADME, organism-based; details: in vivo
Mus musculus [11] = experiment: Dose normalized AUC in C57BL/6 mouse at 10 umol/kg, po; format: ADME, organism-based; details: in vivo
[12] = Cmax in C57BL/6 mouse at 10 umol/kg, po; format: ADME, organism-based; design: dose 10 umol/kg, route oral; details: in vivo
[13] = Tmax in C57BL/6 mouse at 10 umol/kg, po; format: ADME, organism-based; details: in vivo
[14] = Half life in C57BL/6 mouse at 10 umol/kg, po; format: ADME, organism-based; details: in vivo
[15] = Oral bioavailability in C57BL/6 mouse at 10 umol/kg; format: ADME, organism-based; details: in vivo
Mus musculus [16] = experiment: Reduction in amyloid beta42 production in C57BL/6 mouse brain at 150 umol/kg, po after 1.5 hrs by ELISA relative to vehicle treated control; format: functional; details: C57BL/6, Brain
Mus musculus [17] = experiment: Reduction in amyloid beta42 production in C57BL/6 mouse brain at 50 umol/kg, po after 1.5 hrs by ELISA relative to vehicle treated control; format: functional; details: C57BL/6, Brain

Chain of Voltage-gated inwardly rectifying potassium channel KCNH2 (Q12809 whole entry): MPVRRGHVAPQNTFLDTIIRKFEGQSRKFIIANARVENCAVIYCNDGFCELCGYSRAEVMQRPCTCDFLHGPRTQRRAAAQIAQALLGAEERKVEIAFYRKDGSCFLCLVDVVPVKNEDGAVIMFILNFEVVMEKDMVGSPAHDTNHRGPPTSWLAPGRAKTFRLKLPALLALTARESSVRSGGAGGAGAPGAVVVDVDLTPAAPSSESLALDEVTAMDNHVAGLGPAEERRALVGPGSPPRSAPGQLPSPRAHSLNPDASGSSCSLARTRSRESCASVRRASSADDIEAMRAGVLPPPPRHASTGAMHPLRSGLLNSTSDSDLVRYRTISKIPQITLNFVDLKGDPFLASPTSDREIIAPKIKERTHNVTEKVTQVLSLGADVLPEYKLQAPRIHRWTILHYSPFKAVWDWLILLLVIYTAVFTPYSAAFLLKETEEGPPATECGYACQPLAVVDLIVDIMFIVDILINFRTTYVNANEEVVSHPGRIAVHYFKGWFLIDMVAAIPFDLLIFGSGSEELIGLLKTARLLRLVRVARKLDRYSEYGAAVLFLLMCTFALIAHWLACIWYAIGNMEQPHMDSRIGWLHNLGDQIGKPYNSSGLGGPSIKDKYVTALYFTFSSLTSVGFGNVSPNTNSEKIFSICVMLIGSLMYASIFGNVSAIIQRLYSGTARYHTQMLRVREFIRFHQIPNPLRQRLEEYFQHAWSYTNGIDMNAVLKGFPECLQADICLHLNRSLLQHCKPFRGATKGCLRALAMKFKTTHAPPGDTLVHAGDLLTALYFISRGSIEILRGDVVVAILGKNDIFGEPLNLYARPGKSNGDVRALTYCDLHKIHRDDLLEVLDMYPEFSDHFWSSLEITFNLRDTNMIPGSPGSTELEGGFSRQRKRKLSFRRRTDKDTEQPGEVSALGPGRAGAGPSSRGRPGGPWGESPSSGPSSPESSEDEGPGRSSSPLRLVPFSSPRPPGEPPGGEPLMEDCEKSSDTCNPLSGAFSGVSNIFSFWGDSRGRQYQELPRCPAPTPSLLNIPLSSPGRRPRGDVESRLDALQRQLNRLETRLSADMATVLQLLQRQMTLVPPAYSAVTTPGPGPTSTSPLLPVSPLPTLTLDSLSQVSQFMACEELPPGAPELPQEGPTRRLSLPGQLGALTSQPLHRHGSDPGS

pIC50 (Gamma-secretase): 8
pIC50 [1]: 7.7
solubility [3]: 6 µM (≈ 2.66 µg/mL)
CLH (Liver microsome): 52 µL/min
Papp A→B [4]: 22 ×10⁻⁶ cm/s
Papp B→A [5]: 13 ×10⁻⁶ cm/s
Kp [6]: 0.72
AUC/dose (Mus musculus [7]): 0.84 kg·h/L
Vd [8]: 0.9 L/kg
half-life [9]: 36 min
clearance [10]: 21 mL/min/kg
AUC/dose (Mus musculus [11]): 0.27 kg·h/L
Cmax [12]: 1200 nM
Tmax [13]: 30 min
half-life [14]: 312 min
bioavailability [15]: 32%
SMILES: COc1cc(Nc2nc3n(n2)C(C)CC(=O)N3Cc2ccccc2)ccc1-n1cnc(C)c1 (stereo in doubt; 19B)
IC50 [2]: 3.7 µM
inhibition in vivo at 150 µmol/kg (Mus musculus [16]): 24%
inhibition in vivo at 50 µmol/kg (Mus musculus [17]): 9%
